Measurements reported in PubChem BioAssay (NCI).
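Grown in 96-well plates, cells were treated for 48 hours with each compound at five concentrations. Insufficient inhibition: endpoint recorded as highest concentration tested. Here, GI50 denotes the concentration required for 50% inhibition of growth. TGI: concentration producing complete growth inhibition.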

Key:
Assay in all cases: NCI anticancer screen, dose series, 48 h
[1] = test system: 786-0 renal
[2] = test system: CCRF-CEM leukemia
[3] = test system: EKVX NSCLC
[4] = test system: HCT-116 colon
[5] = test system: MALME-3M melanoma
[6] = test system: MOLT-4 leukemia
[7] = test system: NCI-H23 lung
[8] = test system: NCI-H460 lung
[9] = test system: OVCAR-3 ovarian
[10] = test system: RPMI-8226 leukemia
[11] = test system: SF-295 CNS
[12] = test system: SK-OV-3 ovarian
[13] = test system: UACC-62 melanoma
[14] = test system: UO-31 renal
[15] = test system: MDA-MB-231 breast

| Structure (SMILES) | TGI [1] | TGI [2] | TGI [3] | TGI [4] | TGI [5] | TGI [6] | TGI [7] | TGI [8] | TGI [9] | TGI [10] | TGI [11] | TGI [12] | TGI [13] | TGI [14] | TGI [15] | GI50 [15] | GI50 [7] | GI50 [9] | GI50 [10] |
| --- | --- | --- | --- | --- | --- | --- | --- | --- | --- | --- | --- | --- | --- | --- | --- | --- | --- | --- | --- |
| CCCCC1(OC(=O)CCC(=O)O)CCC2(CCC(C)C(C/C=C(C)/C=C/C(O)C(C)/C=C/C(=O)O)O2)OC1CC/C(C)=C/C(=O)O (configuration not stated) | 14.3 µM | 27.4 µM | 25.7 µM | > 50.4 µM | 20.3 µM | 26.9 µM | 3.49 µM | 18.4 µM | 11.2 µM | > 37.3 µM | 15.8 µM | 25.4 µM | 2.62 µM | 8.14 µM | – | – | – | – | – |
| O=C(/C=C\c1cccc2ccccc12)c1ccc(Br)cc1 | 33.7 µM | 50.6 µM | 52.1 µM | 30.3 µM | 81.6 µM | 82.2 µM | > 100 µM | 37.2 µM | 34.4 µM | 45.9 µM | 46.5 µM | 93.6 µM | 29.3 µM | 42.5 µM | – | – | – | – | – |
| N=c1oc2cc(O)c(O)cc2cc1C(N)=O | > 100 µM | > 100 µM | > 100 µM | > 100 µM | > 100 µM | > 100 µM | > 100 µM | > 100 µM | > 100 µM | > 100 µM | > 100 µM | > 100 µM | > 100 µM | > 100 µM | – | – | – | – | – |
| CN=C1Nc2ccccc2C(=S)N2CSC[C@@H]12 | > 100 µM | – | – | > 100 µM | > 100 µM | > 100 µM | > 100 µM | > 100 µM | > 100 µM | > 100 µM | > 100 µM | > 100 µM | > 100 µM | > 100 µM | > 100 µM | – | – | – | – |
| CN(C)c1cccc(-c2cc(=O)c3cc4c(cc3[nH]2)OCO4)c1 | 30.1 µM | > 100 µM | > 100 µM | – | – | > 100 µM | – | 0.987 µM | 0.0575 µM | > 100 µM | 0.693 µM | 0.932 µM | > 100 µM | > 100 µM | – | – | – | – | – |
| CC/C(=C/OC)P1(=O)OC(C)(C)CN1C(C)(C)C (configuration not stated) | > 100 µM | – | > 100 µM | > 100 µM | > 100 µM | – | > 100 µM | > 100 µM | > 100 µM | > 100 µM | > 100 µM | > 100 µM | > 100 µM | > 100 µM | > 100 µM | – | – | – | – |
| NC(=S)Nc1nnc(-c2ccc(-c3nnc(NC(N)=S)o3)cc2)o1 | > 100 µM | > 100 µM | > 100 µM | > 100 µM | > 100 µM | > 100 µM | > 100 µM | > 100 µM | > 100 µM | > 100 µM | > 100 µM | > 100 µM | > 100 µM | > 100 µM | – | – | – | – | – |
| O=C(/C=C(\O)C(=O)O)/C=C(\O)c1ccccc1Cl | > 100 µM | > 100 µM | > 100 µM | > 100 µM | > 100 µM | > 100 µM | > 100 µM | > 100 µM | > 100 µM | > 100 µM | > 100 µM | > 100 µM | > 100 µM | > 100 µM | – | – | – | – | – |
| CC(C)C1=CC(=O)C(C)(C2=NC(C)(C)CO2)c2ccccc21 (configuration not stated) | > 100 µM | > 100 µM | > 100 µM | > 100 µM | > 100 µM | > 100 µM | > 100 µM | > 100 µM | > 100 µM | > 100 µM | > 100 µM | > 100 µM | > 100 µM | > 100 µM | – | – | – | – | – |
| Cc1cccc(NC(=O)CSc2nnc(Cc3ccccc3)o2)c1 | > 100 µM | > 100 µM | > 100 µM | > 100 µM | > 100 µM | > 100 µM | > 100 µM | > 100 µM | > 100 µM | – | > 100 µM | > 100 µM | > 100 µM | > 100 µM | – | – | – | – | – |
| Cc1c(C(=O)Nc2ccc(Cl)c(C(F)(F)F)c2)oc2cc(O)ccc2/c1=N\NC(N)=S | > 100 µM | > 100 µM | > 100 µM | > 100 µM | > 100 µM | > 100 µM | > 100 µM | > 100 µM | > 100 µM | > 100 µM | > 100 µM | > 100 µM | > 100 µM | > 100 µM | – | – | – | – | – |
| Cc1nc(Nc2ccccc2)sc1C(=O)NNC(N)=O | > 100 µM | > 100 µM | > 100 µM | > 100 µM | > 100 µM | > 100 µM | > 100 µM | > 100 µM | > 100 µM | > 100 µM | > 100 µM | > 100 µM | > 100 µM | > 100 µM | – | – | – | – | – |
| COc1ccccc1NC(=S)Nc1cccc(C)n1 | > 100 µM | > 100 µM | > 100 µM | > 100 µM | > 100 µM | > 100 µM | – | > 100 µM | > 100 µM | > 100 µM | > 100 µM | > 100 µM | > 100 µM | > 100 µM | – | – | – | – | – |
| O=C(O/N=C1/CCC/C1=C\c1ccccc1)c1ccccc1 | > 100 µM | > 100 µM | > 100 µM | > 100 µM | > 100 µM | 78.1 µM | > 100 µM | – | > 100 µM | > 100 µM | > 100 µM | > 100 µM | > 100 µM | – | – | – | – | – | – |
| Cc1ccc(C2=NN(C)COC2C(F)(F)F)cc1 (configuration not stated) | > 100 µM | > 100 µM | > 100 µM | > 100 µM | > 100 µM | > 100 µM | > 100 µM | > 100 µM | > 100 µM | > 100 µM | > 100 µM | > 100 µM | > 100 µM | > 100 µM | – | – | – | – | – |
| CO[C@H]1C[C@@H]2CC[C@@H](C)[C@@](O)(O2)C(=O)C(=O)N2CCCC[C@H]2C(=O)O[C@H]([C@H](C)C[C@@H]2CC[C@@H](OC(=O)C(C)(CO)CO)[C@H](OC)C2)CC(=O)[C@H](C)/C=C(\C)[C@@H](O)[C@@H](OC)C(=O)[C@H](C)C[C@H](C)/C=C/C=C/C=C/1C | > 100 µM | – | > 52.2 µM | > 100 µM | – | > 100 µM | > 100 µM | – | > 100 µM | > 29.3 µM | > 100 µM | > 100 µM | 29.7 µM | > 100 µM | 31.2 µM | 2.62 µM | 1.34 µM | 1.78 µM | < 0.0247 µM |
